From ChEMBL document CHEMBL3792317, “Novel tetrazoloquinoline-rhodanine conjugates: Highly efficient synthesis and biological evaluation” (Bioorg Med Chem Lett, 2016)
Values after ≈ are worked out from the molar mass of the structure shown. Active and inactive are the calls of the source. The calls are words filed in the database; no cut-off is given here.

How the values were obtained:
[1] = test system: Mycobacterium bovis BCG str. ATCC 35743; experiment: Antitubercular activity against dormant Mycobacterium bovis BCG ATCC 35743 incubated for 40 mins by XTT Reduction Menadione Assay; format: functional
[2] = test system: HeLa; experiment: (§1) Cytotoxicity against human HeLa cells after 48 hrs by MTT assay; format: cell-based; conditions: hela, 48 h
[3] = as §1; format: cell-based; conditions: HeLa cells
[4] = test system: A549; experiment: (§2) Cytotoxicity against human A549 cells after 48 hrs by MTT assay; format: cell-based; conditions: a549, 48 h
[5] = as §2; format: cell-based; conditions: A549 cells
[6] = test system: Aspergillus flavus; experiment: Antifungal activity against Aspergillus flavus NCIM 539 after 48 hrs by agar cup plate method; format: functional; conditions: NCIM 539, 48 h
[7] = test system: Candida albicans; experiment: Antifungal activity against Candida albicans NCIM 3471 after 48 hrs by agar cup plate method; format: functional; conditions: NCIM 3471, 48 h
[8] = test system: Mycobacterium bovis BCG str. ATCC 35743; experiment: Antitubercular activity against dormant Mycobacterium bovis BCG ATCC 35743 at 10 ug/ml incubated for 40 mins by XTT Reduction Menadione Assay; format: functional
[9] = test system: Mycobacterium tuberculosis; experiment: Antitubercular activity against Mycobacterium tuberculosis H37Ra ATCC 25177 incubated for 40 mins by XTT Reduction Menadione Assay; format: functional; conditions: H37Ra ATCC 25177, 40 min
[10] = test system: Mycobacterium tuberculosis; experiment: Antitubercular activity against Mycobacterium tuberculosis H37Ra ATCC 25177 at 10 ug/ml incubated for 40 mins by XTT Reduction Menadione Assay; format: functional; conditions: H37Ra ATCC 25177, 40 min, read-out: GI
[11] = Cytotoxicity against human THP1 cells after 48 hrs by MTT assay; format: cell-based, THP-1; conditions: for GI50 at 48 h: THP1 cells; for GI90: thp-1, 48 h
[12] = test system: Mycobacterium tuberculosis; experiment: Antitubercular activity against active Mycobacterium tuberculosis H37Ra ATCC 25177 incubated for 40 mins by XTT Reduction Menadione Assay; format: functional; conditions: H37Ra ATCC 25177, 40 min
[13] = test system: Mycobacterium tuberculosis; experiment: Antitubercular activity against dormant Mycobacterium tuberculosis H37Ra ATCC 25177 incubated for 40 mins by XTT Reduction Menadione Assay; format: functional; conditions: H37Ra ATCC 25177, 40 min
[14] = Cytotoxicity against human PANC1 cells after 48 hrs by MTT assay; format: cell-based, PANC-1; conditions: for GI50 at 48 h: PANC1 cells; for GI90: panc-1, 48 h
[15] = test system: Cryptococcus neoformans; experiment: Antifungal activity against Cryptococcus neoformans NCIM 576 after 48 hrs by agar cup plate method; format: functional; conditions: NCIM 576, 48 h
[16] = test system: Fusarium oxysporum; experiment: Antifungal activity against Fusarium oxysporum NCIM 1332 after 48 hrs by agar cup plate method; format: functional; conditions: NCIM 1332, 48 h
[17] = test system: Mycobacterium bovis BCG str. ATCC 35743; experiment: Antitubercular activity against dormant Mycobacterium bovis BCG ATCC 35743 at 30 ug/ml incubated for 40 mins by XTT Reduction Menadione Assay; format: functional
[18] = test system: Mycobacterium bovis BCG str. ATCC 35743; experiment: Antitubercular activity against dormant Mycobacterium bovis BCG ATCC 35743 at 3 ug/ml incubated for 40 mins by XTT Reduction Menadione Assay; format: functional
[19] = test system: Aspergillus niger; experiment: Antifungal activity against Aspergillus niger NCIM 1196 after 48 hrs by agar cup plate method; format: functional; conditions: NCIM 1196, 48 h
[20] = Antitubercular activity against Mycobacterium bovis BCG ATCC 35743 incubated for 40 mins by XTT Reduction Menadione Assay; format: functional, Mycobacterium bovis BCG str. ATCC 35743; conditions: Mycobacterium tuberculosis variant bovis BCG, ATCC 35743, 40 min
[21] = test system: Mycobacterium tuberculosis; experiment: Antitubercular activity against Mycobacterium tuberculosis H37Ra ATCC 25177 at 3 ug/ml incubated for 40 mins by XTT Reduction Menadione Assay; format: functional; conditions: H37Ra ATCC 25177, 40 min, read-out: GI
[22] = test system: Mycobacterium tuberculosis; experiment: Antitubercular activity against Mycobacterium tuberculosis H37Ra ATCC 25177 at 30 ug/ml incubated for 40 mins by XTT Reduction Menadione Assay; format: functional; conditions: H37Ra ATCC 25177, 40 min, read-out: GI
[23] = test system: Cryptococcus neoformans; experiment: Antifungal activity against Cryptococcus neoformans NCIM 576 up to 200 ug/ml after 48 hrs by agar cup plate method; format: functional, organism-based
[24] = Selectivity index, ratio of GI50 for human THP1 cells to MIC for Mycobacterium bovis BCG ATCC 35743; format: toxicity, cell-based, THP-1; conditions: read-out: Selectivity Index
[25] = Selectivity index, ratio of GI50 for human THP1 cells to MIC for Mycobacterium tuberculosis H37Ra ATCC 25177; format: toxicity, cell-based, THP-1; conditions: read-out: Selectivity Index
[26] = Selectivity index, ratio of GI50 for human A549 cells to MIC for Mycobacterium tuberculosis H37Ra ATCC 25177; format: toxicity, cell-based; conditions: read-out: Selectivity Index
[27] = Selectivity index, ratio of GI50 for human HeLa cells to MIC for Mycobacterium bovis BCG ATCC 35743; format: toxicity, cell-based; conditions: read-out: Selectivity Index
[28] = Selectivity index, ratio of GI50 for human PANC1 cells to MIC for Mycobacterium bovis BCG ATCC 35743; format: toxicity, cell-based, PANC-1; conditions: read-out: Selectivity Index
[29] = Selectivity index, ratio of GI50 for human HeLa cells to MIC for Mycobacterium tuberculosis H37Ra ATCC 25177; format: toxicity, cell-based; conditions: read-out: Selectivity Index
[30] = Selectivity index, ratio of GI50 for human PANC1 cells to MIC for Mycobacterium tuberculosis H37Ra ATCC 25177; format: toxicity, cell-based, PANC-1; conditions: read-out: Selectivity Index
[31] = test system: Fusarium oxysporum; experiment: Antifungal activity against Fusarium oxysporum NCIM 1332 up to 200 ug/ml after 48 hrs by agar cup plate method; format: functional, organism-based
[32] = Selectivity index, ratio of GI50 for human A549 cells to MIC for Mycobacterium bovis BCG ATCC 35743; format: toxicity, cell-based; conditions: read-out: Selectivity Index
[33] = test system: Escherichia coli; experiment: Antibacterial activity against Escherichia coli after 18 hrs by broth dilution method; format: functional
[34] = test system: Bacillus subtilis; experiment: Antibacterial activity against Bacillus subtilis after 18 hrs by broth dilution method; format: functional
[35] = test system: Pseudomonas fluorescens; experiment: Antibacterial activity against Pseudomonas fluorescens after 18 hrs by broth dilution method; format: functional
[36] = test system: Staphylococcus aureus; experiment: Antibacterial activity against Staphylococcus aureus after 18 hrs by broth dilution method; format: functional

Row | Compound | GI90 [2] | GI50 at 48 h [3] | GI90 [4] | GI50 at 48 h [5] | MIC [6] | MIC [7] | growth inhibition (GI) [8] | MIC [9] | inhibition of growth at 10 µg/mL [10] | GI50 at 48 h [11] | GI90 [11] | IC90 [12] | IC90 [13] | MIC [16] | growth inhibition (GI) [17] | growth inhibition (GI) [18] | MIC [19] | MIC [20] | inhibition of growth at 3 µg/mL [21] | inhibition of growth at 30 µg/mL [22] | other results
1 | Cc1ccc2cc(/C=C3\SC(=S)N(CCC(=O)O)C3=O)c3nnnn3c2c1 | > 100 µg/mL | > 100 µg/mL | > 100 µg/mL | > 100 µg/mL | 50 µg/mL (≈ 125 µM) | 25 µg/mL (≈ 62.6 µM) | 12.3% | 42.2 µg/mL (≈ 106 µM) | 30% | > 100 µg/mL | > 100 µg/mL | 45 µg/mL (≈ 113 µM) | 42.2 µg/mL (≈ 106 µM) | 50 µg/mL (≈ 125 µM) | 41.2% | 4.55% | 100 µg/mL (≈ 250 µM) | 45.4 µg/mL (≈ 114 µM) | 16.6% | 60.3% | IC90 [1]: 45.4 µg/mL (≈ 114 µM); GI50 at 48 h [14]: > 100 µg/mL; GI90 [14]: > 100 µg/mL; MIC [15]: 50 µg/mL (≈ 125 µM)
2 | COc1ccc2c(c1)cc(/C=C1\SC(=S)N(CCC(=O)O)C1=O)c1nnnn12 |  |  |  |  | 150 µg/mL (≈ 361 µM) | 150 µg/mL (≈ 361 µM) | 16% | > 250 µg/mL | 27.9% |  |  |  |  | 125 µg/mL (≈ 301 µM) | 23.9% | 8.94% | 150 µg/mL (≈ 361 µM) | > 250 µg/mL | -0.42% | 15.9% | MIC [23]: inactive
3 | COc1ccc2cc(/C=C3\SC(=S)N(CC(=O)O)C3=O)c3nnnn3c2c1 | > 100 µg/mL | > 100 µg/mL | > 100 µg/mL | > 100 µg/mL | 150 µg/mL (≈ 374 µM) | 100 µg/mL (≈ 249 µM) | 37.3% | 92.3 µg/mL (≈ 230 µM) | 13.6% | > 100 µg/mL | > 100 µg/mL | 159 µg/mL (≈ 396 µM) | 92.3 µg/mL (≈ 230 µM) |  | 25.6% | 12.7% | 150 µg/mL (≈ 374 µM) | 121 µg/mL (≈ 302 µM) | 3.59% | 97.2% | selectivity ratio [24]: 4.13; selectivity ratio [25]: 1.1; selectivity ratio [26]: 1.1; GI50 at 48 h [14]: > 100 µg/mL; GI90 [14]: > 100 µg/mL; MIC [15]: 175 µg/mL (≈ 436 µM); selectivity ratio [27]: 4.13; selectivity ratio [28]: 4.13; selectivity ratio [29]: 1.1; selectivity ratio [30]: 1.1; MIC [31]: inactive; selectivity ratio [32]: 4.13
4 | COc1ccc2cc(/C=C3\SC(=S)NC3=O)c3nnnn3c2c1 |  |  |  |  | 100 µg/mL (≈ 291 µM) | 150 µg/mL (≈ 437 µM) | -1.87% | > 250 µg/mL | 15.6% |  |  |  |  | 100 µg/mL (≈ 291 µM) | 3.63% | -3.47% | 25 µg/mL (≈ 72.8 µM) | > 250 µg/mL | 1.97% | 14.1% | MIC [23]: inactive; MIC [33]: 102 µg/mL (≈ 298 µM); MIC [34]: 246 µg/mL (≈ 716 µM); MIC [35]: 157 µg/mL (≈ 457 µM); MIC [36]: 247 µg/mL (≈ 721 µM)
